Reference: patent US10633419B2, “Immunomodulators” (BRISTOL-MYERS SQUIBB COMPANY, priority 2014, dated 2020)
Starred links: 1 amine or outer side, 2 acyl side, 3 side chain; linkers in the order of their positions; H or OH if unused. Positions of bridges follow the written chain, without caps; N, C: chain ends. Non-standard residues stand in square brackets, D forms with d. Residues, ends and D or L forms follow the SMILES beside them. ξ: configuration not given here. *: point of attachment. Dap(Nα-HOOC(CH2)16CO)OH = O=C(O)CCCCCCCCCCCCCCCCC(=O)N[C@@H](CN*)C(=O)O; Trp(1-CH2COOH) = N[C@@H](Cc1cn(CC(=O)O)c2ccccc12)C(=O)O; X26 = O=C(O)Cn1cc(CC(N[*:1])C(=O)[*:2])c2ccccc21; NH(CH2)16COOH = O=C(O)CCCCCCCCCCCCCCCCN*; NH(CH2)14COOH = O=C(O)CCCCCCCCCCCCCCN*; ξPro(4R-OH) = O=C(O)C1C[C@@H](O)CN1; PEG6 = NCCOCCOCCOCCOCCOCCOCCC(=O)O; Hyp = O=C(O)[CH]1C[CH](O)CN1; X32 = O=C(O)CCCCCCCCCCCCCCCCCCN*; NMeNle = CCCC[CH](NC)C(=O)O; NMeA = CN[CH](C)C(=O)O; Dab = NCC[CH](N)C(=O)O; Dap = NC[CH](N)C(=O)O

What follows are compounds tested against T1, PD-L1 (Homo sapiens, UniProt Q9NZQ7) (assay: PD-1/PD-L1 Homogenous Time-Resolved Fluorescence (HTRF) binding assay (PD-1-Ig/PD-L1-His)). Conditions: inhibition of PD-1-Ig binding to PD-L1-TVMV-His; value given as number; read-out: HTRF IC50.
T1 construct: hPDL1(19-239)-TVMV-His; made in house; host or cells: HEK293T
T1 sequence (Q9NZQ7 with tags, fused parts or gaps): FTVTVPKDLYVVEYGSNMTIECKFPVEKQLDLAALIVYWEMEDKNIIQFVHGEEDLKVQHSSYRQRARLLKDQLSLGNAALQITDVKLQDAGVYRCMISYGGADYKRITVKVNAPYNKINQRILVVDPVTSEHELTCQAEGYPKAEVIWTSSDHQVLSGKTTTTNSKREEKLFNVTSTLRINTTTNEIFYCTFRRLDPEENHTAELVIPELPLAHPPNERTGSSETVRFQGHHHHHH
How it was run: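 HTRF competition in dPBS with 0.1% BSA and 0.05% Tween-20: 20 nM PD-1-Ig added after 15 min compound pre-incubation with 10 nM PD-L1-His, then another 15 min. Signal (665/620 nm) after 30 min with APC anti-His (20 nM) and Eu anti-Ig (1 nM).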

| IC50 [nM] | SMILES |
| --- | --- |
| 280 | CCCCC1C(=O)N(C)C(CCCC)C(=O)NC(CC(C)C)C(=O)NC(C(=O)NCC(=O)NCCCCCCCCCCCCCCCCC(=O)O)CSCC(=O)NC(Cc2ccc(O)cc2)C(=O)N(C)C(C)C(=O)NC(CC(N)=O)C(=O)N2CCCC2C(=O)NC(CN)C(=O)NC(CC(C)C)C(=O)N2CC(O)CC2C(=O)NC(Cc2c[nH]c3ccccc23)C(=O)NC(CCN)C(=O)NC(Cc2cn(CC(=O)O)c3ccccc23)C(=O)N1C (stereo not shown) [Example 11188] ({CH2CO}-Y[NMeA]NP[Dap]L[Hyp]W[Dab][X26][NMeNle][NMeNle]LCG-{NH(CH2)16COOH}; thioether N-14; configuration not given here) |

Same assay, conditions: inhibition of PD-1-Ig binding to PD-L1-TVMV-His; value given as range class; read-out: HTRF IC50

| IC50 [nM] | SMILES |
| --- | --- |
| 100 to 1600 | CCCC[C@H]1C(=O)N(C)[C@@H](CCCC)C(=O)N[C@@H](CC(C)C)C(=O)N[C@H](C(=O)NCC(=O)N[C@@H](CC(=O)O)C(=O)NCCOCCOCCOCCOCCOCCOCCC(=O)NC[C@H](NC(=O)CCCCCCCCCCCCCCCCC(=O)O)C(=O)O)CSCC(=O)N[C@@H](Cc2ccc(O)cc2)C(=O)N(C)[C@@H](C)C(=O)N[C@@H](CC(N)=O)C(=O)N2CCC[C@H]2C(=O)N[C@@H](CN)C(=O)N[C@@H](CC(C)C)C(=O)N2C[C@H](O)C[C@H]2C(=O)N[C@@H](Cc2c[nH]c3ccccc23)C(=O)N[C@@H](CCN)C(=O)N[C@@H](Cc2cn(CC(=O)O)c3ccccc23)C(=O)N1C [Example 11181] ({CH2CO}-Y[NMeA]NP[Dap]L[Hyp]W[Dab][Trp(1-CH2COOH)][NMeNle][NMeNle]LCGD[PEG6]-{Dap(Nα-HOOC(CH2)16CO)OH}; thioether N-14) |
| 100 to 1600 | CCCC[C@H]1C(=O)N(C)[C@@H](CCCC)C(=O)N[C@@H](CC(C)C)C(=O)N[C@H](C(=O)NCC(=O)N[C@@H](CCC(=O)O)C(=O)NCCOCCOCCOCCOCCOCCOCCC(=O)NC[C@H](NC(=O)CCCCCCCCCCCCCCCCC(=O)O)C(=O)O)CSCC(=O)N[C@@H](Cc2ccc(O)cc2)C(=O)N(C)[C@@H](C)C(=O)N[C@@H](CC(N)=O)C(=O)N2CCC[C@H]2C(=O)N[C@@H](CN)C(=O)N[C@@H](CC(C)C)C(=O)N2C[C@H](O)CC2C(=O)N[C@@H](Cc2c[nH]c3ccccc23)C(=O)N[C@@H](CCN)C(=O)N[C@@H](Cc2cn(CC(=O)O)c3ccccc23)C(=O)N1C (stereo partly drawn) [Example 11182] ({CH2CO}-Y[NMeA]NP[Dap]L[ξPro(4R-OH)]W[Dab][Trp(1-CH2COOH)][NMeNle][NMeNle]LCGE[PEG6]-{Dap(Nα-HOOC(CH2)16CO)OH}; thioether N-14) |
| 100 to 1600 | C=C1N[C@@H](Cc2c[nH]c3ccccc23)C(=O)N[C@@H](CCN)C(=O)N[C@@H](Cc2cn(CC(=O)O)c3ccccc23)C(=O)N(C)[C@@H](CCCC)C(=O)N(C)[C@@H](CCCC)C(=O)N[C@@H](CC(C)C)C(=O)N[C@H](C(=O)NCC(=O)N[C@@H](CC(=O)NCCOCCOCCOCCOCCOCCOCCC(=O)NC[C@H](NC(=O)CCCCCCCCCCCCCCCCC(=O)O)C(=O)O)C(=O)O)CSCC(=O)N[C@@H](Cc2ccc(O)cc2)C(=O)N(C)[C@@H](C)C(=O)N[C@@H](CC(N)=O)C(=O)N2CCC[C@H]2C(=O)N[C@@H](CN)C(=O)N[C@@H](CC(C)C)C(=O)N2C[C@H](O)C[C@@]12O [Example 11183] |
| 10 to 99 | CCCC[C@H]1C(=O)N(C)[C@@H](CCCC)C(=O)N[C@@H](CC(C)C)C(=O)C[C@H](C(=O)NCC(=O)N[C@@H](CCC(=O)O)C(=O)NCCCOCCOCCOCCCNC(=O)CC[C@H](NC(=O)CCCCCCCCCCCCCCC(=O)O)C(=O)O)CSCC(=O)N[C@@H](Cc2ccc(O)cc2)C(=O)N(C)[C@@H](C)C(=O)N[C@@H](CC(N)=O)C(=O)N2CCC[C@H]2C(=O)N[C@@H](CN)C(=O)N[C@@H](CC(C)C)C(=O)N2C[C@H](O)C[C@H]2C(=O)N[C@@H](Cc2c[nH]c3ccccc23)C(=O)N[C@@H](CCN)C(=O)N[C@@H](Cc2cn(CC(=O)O)c3ccccc23)C(=O)N1C [Example 11184] |
| 10 to 99 | CCCC[C@H]1C(=O)N(C)[C@@H](CCCC)C(=O)N[C@@H](CC(C)C)C(=O)C[C@H](C(=O)NCC(=O)N[C@@H](CC(=O)O)C(=O)NC[C@H](NC(=O)CCCCCCCCCCCCCCCCC(=O)O)C(=O)O)CSCC(=O)N[C@@H](Cc2ccc(O)cc2)C(=O)N(C)[C@@H](C)C(=O)N[C@@H](CC(N)=O)C(=O)N2CCC[C@H]2C(=O)N[C@@H](CN)C(=O)N[C@@H](CC(C)C)C(=O)N2C[C@H](O)C[C@H]2C(=O)N[C@@H](Cc2c[nH]c3ccccc23)C(=O)N[C@@H](CCN)C(=O)N[C@@H](Cc2cn(CC(=O)O)c3ccccc23)C(=O)N1C [Example 11185] |
| 100 to 1600 | CCCC[C@H]1C(=O)N(C)[C@@H](CCCC)C(=O)N[C@@H](CC(C)C)C(=O)N[C@H](C(=O)NCC(=O)NCC(=O)NCCCCCCCCCCCCCCCCC(=O)O)CSCC(=O)N[C@@H](Cc2ccc(O)cc2)C(=O)N(C)[C@@H](C)C(=O)N[C@@H](CC(N)=O)C(=O)N2CCC[C@H]2C(=O)N[C@@H](CN)C(=O)N[C@@H](CC(C)C)C(=O)N2C[C@H](O)C[C@H]2C(=O)N[C@@H](Cc2c[nH]c3ccccc23)C(=O)N[C@@H](CCN)C(=O)N[C@@H](Cc2cn(CC(=O)O)c3ccccc23)C(=O)N1C [Example 11189] ({CH2CO}-Y[NMeA]NP[Dap]L[Hyp]W[Dab][Trp(1-CH2COOH)][NMeNle][NMeNle]LCGG-{NH(CH2)16COOH}; thioether N-14) |
| 10 to 99 | CCCC[C@H]1C(=O)N(C)[C@@H](CCCC)C(=O)N[C@@H](CC(C)C)C(=O)N[C@H](C(=O)NCC(=O)N[C@H](CC(=O)O)C(=O)NCCCCCCCCCCCCCCCCC(=O)O)CSCC(=O)N[C@@H](Cc2ccc(O)cc2)C(=O)N(C)[C@@H](C)C(=O)N[C@@H](CC(N)=O)C(=O)N2CCC[C@H]2C(=O)N[C@@H](CN)C(=O)N[C@@H](CC(C)C)C(=O)N2C[C@H](O)C[C@H]2C(=O)N[C@@H](Cc2c[nH]c3ccccc23)C(=O)N[C@@H](CCN)C(=O)N[C@@H](Cc2cn(CC(=O)O)c3ccccc23)C(=O)N1C [Example 11190] ({CH2CO}-Y[NMeA]NP[Dap]L[Hyp]W[Dab][Trp(1-CH2COOH)][NMeNle][NMeNle]LCG[dD]-{NH(CH2)16COOH}; thioether N-14) |
| 10 to 99 | CCCC[C@H]1C(=O)N(C)[C@@H](CCCC)C(=O)N[C@@H](CC(C)C)C(=O)N[C@H](C(=O)NCC(=O)NCC(=O)NCCCCCCCCCCCCCCCCCCC(=O)O)CSCC(=O)N[C@@H](Cc2ccc(O)cc2)C(=O)N(C)[C@@H](C)C(=O)N[C@@H](CC(N)=O)C(=O)N2CCC[C@H]2C(=O)N[C@@H](CN)C(=O)N[C@@H](CC(C)C)C(=O)N2C[C@H](O)C[C@H]2C(=O)N[C@@H](Cc2c[nH]c3ccccc23)C(=O)N[C@@H](CCN)C(=O)N[C@@H](Cc2cn(CC(=O)O)c3ccccc23)C(=O)N1C [Example 11193] ({CH2CO}-Y[NMeA]NP[Dap]L[Hyp]W[Dab][Trp(1-CH2COOH)][NMeNle][NMeNle]LCGG-X32; thioether N-14) |
| 10 to 99 | CCCC[C@H]1C(=O)N(C)[C@@H](CCCC)C(=O)N[C@@H](CC(C)C)C(=O)N[C@H](C(=O)NCC(=O)NCC(=O)NCCCCCCCCCCCCCCC(=O)O)CSCC(=O)N[C@@H](Cc2ccc(O)cc2)C(=O)N(C)[C@@H](C)C(=O)N[C@@H](CC(N)=O)C(=O)N2CCC[C@H]2C(=O)N[C@@H](CN)C(=O)N[C@@H](CC(C)C)C(=O)N2C[C@H](O)C[C@H]2C(=O)N[C@@H](Cc2c[nH]c3ccccc23)C(=O)N[C@@H](CCN)C(=O)N[C@@H](Cc2cn(CC(=O)O)c3ccccc23)C(=O)N1C [Example 11194] ({CH2CO}-Y[NMeA]NP[Dap]L[Hyp]W[Dab][Trp(1-CH2COOH)][NMeNle][NMeNle]LCGG-{NH(CH2)14COOH}; thioether N-14) |
| 10 to 99 | CCCC[C@H]1C(=O)N(C)[C@@H](CCCC)C(=O)N[C@@H](CC(C)C)C(=O)N[C@H](C(=O)NCC(=O)N[C@H](CC(=O)O)C(=O)NCCCCCCCCCCCCCCC(=O)O)CSCC(=O)N[C@@H](Cc2ccc(O)cc2)C(=O)N(C)[C@@H](C)C(=O)N[C@@H](CC(N)=O)C(=O)N2CCC[C@H]2C(=O)N[C@@H](CN)C(=O)N[C@@H](CC(C)C)C(=O)N2C[C@H](O)C[C@H]2C(=O)N[C@@H](Cc2c[nH]c3ccccc23)C(=O)N[C@@H](CCN)C(=O)N[C@@H](Cc2cn(CC(=O)O)c3ccccc23)C(=O)N1C [Example 11195] ({CH2CO}-Y[NMeA]NP[Dap]L[Hyp]W[Dab][Trp(1-CH2COOH)][NMeNle][NMeNle]LCG[dD]-{NH(CH2)14COOH}; thioether N-14) |
| 10 to 99 | CCCC[C@H]1C(=O)N(C)[C@@H](CCCC)C(=O)N[C@@H](CC(C)C)C(=O)N[C@H](C(=O)NCCCCCCCCCCCCCCC(=O)O)CSCC(=O)N[C@@H](Cc2ccc(O)cc2)C(=O)N(C)[C@@H](C)C(=O)N[C@@H](CC(N)=O)C(=O)N2CCC[C@H]2C(=O)N[C@@H](CN)C(=O)N[C@@H](CC(C)C)C(=O)N2C[C@H](O)C[C@H]2C(=O)N[C@@H](Cc2c[nH]c3ccccc23)C(=O)N[C@@H](CCN)C(=O)N[C@@H](Cc2cn(CC(=O)O)c3ccccc23)C(=O)N1C [Example 11196] ({CH2CO}-Y[NMeA]NP[Dap]L[Hyp]W[Dab][Trp(1-CH2COOH)][NMeNle][NMeNle]LC-{NH(CH2)14COOH}; thioether N-14) |
| 10 to 99 | CCCC[C@H]1C(=O)N(C)[C@@H](CCCC)C(=O)N[C@@H](CC(C)C)C(=O)N[C@H](C(=O)NCC(=O)NCCCCCCCCCCCCCCC(=O)O)CSCC(=O)N[C@@H](Cc2ccc(O)cc2)C(=O)N(C)[C@@H](C)C(=O)N[C@@H](CC(N)=O)C(=O)N2CCC[C@H]2C(=O)N[C@@H](CN)C(=O)N[C@@H](CC(C)C)C(=O)N2C[C@H](O)C[C@H]2C(=O)N[C@@H](Cc2c[nH]c3ccccc23)C(=O)N[C@@H](CCN)C(=O)N[C@@H](Cc2cn(CC(=O)O)c3ccccc23)C(=O)N1C [Example 11197] ({CH2CO}-Y[NMeA]NP[Dap]L[Hyp]W[Dab][Trp(1-CH2COOH)][NMeNle][NMeNle]LCG-{NH(CH2)14COOH}; thioether N-14) |
